Like-named read-outs stand apart in the source and are kept apart here.
What was measured:
SA178R1 = experiment: Checkerboard (FIC) analysis, SA178R1; type: cell-based, Staphylococcus aureus
RN4220 = experiment: Checkerboard (FIC) analysis, RN4220; type: cell-based, Staphylococcus aureus
Procedure: (§3) Here a matrix of drug concentrations were tested in combinations at the concentrations shown (μg/mL). […] FIC index is a measure of synergy and is calculated as follows: FIC index=FIC (cefuroxime)+FIC (drug compound).

CA-MRSA USA400/MW2 = experiment: Checkerboard (FIC) analysis, CA-MRSA USA400/MW2; type: cell-based, Staphylococcus aureus
S. aureus strains = test system: S. aureus strains
Procedure: (§1) Here a matrix of drug concentrations were tested in combinations at the concentrations shown (μg/mL). Greyscale indicates growth—darker is more growth, lighter is less growth. FIC index is a measure of synergy and is calculated as follows: FIC index=FIC (cefuroxime)+FIC (drug compound).
(§2) The combination of ticlopidine and cefuroxime was further tested as above against a variety of S. aureus strains as shown in Table 1 below.

HA-MRSA USA500 = experiment: Checkerboard (FIC) analysis, HA-MRSA USA500; type: cell-based, Staphylococcus aureus
HA-MRSA USA600 = experiment: Checkerboard (FIC) analysis, HA-MRSA USA600; type: cell-based, Staphylococcus aureus
HA-MRSA [1] = experiment: Checkerboard (FIC) analysis, HA-MRSA (Table 1 r10); type: cell-based, Staphylococcus aureus; settings: HA-MRSA (Table 1 r10)
HA-MRSA EMRSA15 = experiment: Checkerboard (FIC) analysis, HA-MRSA EMRSA15; type: cell-based, Staphylococcus aureus
MRSA = experiment: Analogues in combination with cefuroxime against MRSA (FIC index); type: cell-based, Staphylococcus aureus; settings: compound in combination with cefuroxime; MRSA (Table 5)
Procedure: A series of analogues were synthesized (as shown in Table 5) in which the thienopyridine ring was removed.
These were tested in combination with cefuroxime against MRSA and results are shown below (Table 6).

HA-MRSA USA200/EMRSA16 = experiment: Checkerboard (FIC) analysis, HA-MRSA USA200/EMRSA16; type: cell-based, Staphylococcus aureus
[2] = test system: S. aureus (Newman strain); experiment: Checkerboard (FIC) analysis against S. aureus Newman; type: cell-based, Staphylococcus aureus; settings: Newman
HA-MRSA USA100/800/NY = experiment: Checkerboard (FIC) analysis, HA-MRSA USA100/800/NY; type: cell-based, Staphylococcus aureus
HA-MRSA [3] = experiment: Checkerboard (FIC) analysis, HA-MRSA (Table 1 r13); type: cell-based, Staphylococcus aureus; settings: HA-MRSA (Table 1 r13)
Procedure: as §3

CA-MRSA USA300 = experiment: Checkerboard (FIC) analysis against CA-MRSA USA300; type: cell-based, Staphylococcus aureus; settings: for MIC: Staphylococcus aureus
Procedure: as §1, §2
FIC index=FIC (β-lactam)+FTC (ticlopidine). […]

HA-MRSA [4] = experiment: Checkerboard (FIC) analysis, HA-MRSA (Table 1 r16); type: cell-based, Staphylococcus aureus; settings: HA-MRSA (Table 1 r16)
[5] = Staphylococcus aureus, ticlopidine alone, read-out: MIC ticlopidine

`Clc1ccccc1CN1CCc2sccc2C1` [Compound 1, 5-(2-Chloro-benzyl)-4,5,6,7-tetrahydro-thieno[3,2-c]pyridine] was tested, and the MIC (SA178R1; [5]) was > 128 µg/mL, the FIC ticlopidine (SA178R1; in the presence of cefuroxime) was 1 and the “FIC index” value (SA178R1; ticlopidine + cefuroxime) was “≦2”. The MIC (RN4220; Staphylococcus aureus, ticlopidine alone) was > 128 µg/mL, the FIC ticlopidine (RN4220; in the presence of cefuroxime) was 1 and the “FIC index” value (RN4220; ticlopidine + cefuroxime) was “≦2”. The MIC (CA-MRSA USA400/MW2; [5]) was > 256 µg/mL, the FIC ticlopidine (CA-MRSA USA400/MW2; in the presence of cefuroxime) was 0.063 and the “FIC index” value (CA-MRSA USA400/MW2; ticlopidine + cefuroxime) was “≦0.125”. For the same molecule, the “methicillin-resistant strains (Canadian MRSA collection) in which potent synergy was retained” value (S. aureus strains; ticlopidine + cefuroxime, including USA300) was 7 of 10, the antibacterial activity alone (S. aureus strains; ticlopidine alone against the S. aureus strains of Table 1) was “no antibacterial activity alone” and the “potentiation of the activity of the β-lactams” value (S. aureus strains; ticlopidine in combination with a β-lactam, even in β-lactam-resistant S. aureus) was “over 32 fold”. The MIC (HA-MRSA USA500; [5]) was > 256 µg/mL, the FIC ticlopidine (HA-MRSA USA500; in the presence of cefuroxime) was 1 and the “FIC index” value (HA-MRSA USA500; ticlopidine + cefuroxime) was “≦2”. For the same molecule, the MIC (HA-MRSA USA600; [5]) was > 256 µg/mL, the FIC ticlopidine (HA-MRSA USA600; in the presence of cefuroxime) was 0.032 and the “FIC index” value (HA-MRSA USA600; ticlopidine + cefuroxime) was “≦0.040”. For the same molecule, the FIC ticlopidine (HA-MRSA [1]; in the presence of cefuroxime) was 0.032, the “FIC index” value (HA-MRSA [1]; ticlopidine + cefuroxime) was “≦0.282” and the MIC (HA-MRSA [1]; [5]) was > 256 µg/mL. The MIC (HA-MRSA EMRSA15; [5]) was > 256 µg/mL, the FIC ticlopidine (HA-MRSA EMRSA15; in the presence of cefuroxime) was 0.063 and the “FIC index” value (HA-MRSA EMRSA15; ticlopidine + cefuroxime) was “≦0.125”. For the same molecule, the “FIC index” value (MRSA) was “≦0.125”, the MIC (HA-MRSA USA200/EMRSA16; [5]) was > 256 µg/mL and the FIC ticlopidine (HA-MRSA USA200/EMRSA16; in the presence of cefuroxime) was 0.063. For the same molecule, the “FIC index” value (HA-MRSA USA200/EMRSA16; ticlopidine + cefuroxime) was “≦0.095”, the FIC ticlopidine ([2]; in the presence of cefuroxime) was 0.125 and the “FIC index” value ([2]; ticlopidine + cefuroxime) was “≦0.250”. The MIC [2, 5] was > 256 µg/mL, the MIC (HA-MRSA USA100/800/NY; [5]) was > 256 µg/mL and the FIC ticlopidine (HA-MRSA USA100/800/NY; in the presence of cefuroxime) was 0.125. The “FIC index” value (HA-MRSA USA100/800/NY; ticlopidine + cefuroxime) was “≦0.250”, the FIC ticlopidine (HA-MRSA [3]; in the presence of cefuroxime) was 0.016 and the “FIC index” value (HA-MRSA [3]; ticlopidine + cefuroxime) was “≦0.266”. For the same molecule, the MIC (HA-MRSA [3]; [5]) was > 256 µg/mL, the FIC ticlopidine (CA-MRSA USA300; CA-MRSA USA300 (Table 1), in the presence of cefuroxime) was 0.032 and the “FIC index” value (CA-MRSA USA300; CA-MRSA USA300 (Table 1), ticlopidine + cefuroxime) was “≦0.063”. For the same molecule, the MIC (CA-MRSA USA300; CA-MRSA USA300 (Table 1), ticlopidine alone, read-out: MIC ticlopidine) was > 256 µg/mL, the MIC (CA-MRSA USA300; thienopyridine alone, CA-MRSA USA300 (Table 4), read-out: MIC thienopyridine) was > 128 µg/mL and the “drug-drug interaction with cefuroxime (checkerboard secondary screen)” value (CA-MRSA USA300; in combination with cefuroxime) was “synergistic interactions”. For the same molecule, the FIC thienopyridine (CA-MRSA USA300; in the presence of cefuroxime, CA-MRSA USA300 (Table 4)) was 0.13, the “FIC index” value (CA-MRSA USA300; thienopyridine in combination with cefuroxime, CA-MRSA USA300 (Table 4)) was “≦0.16” and the FIC index (CA-MRSA USA300; ticlopidine in combination with cefuroxime, CA-MRSA USA 300, FIG. 2) was ≤ 0.12. For the same molecule, the FIC ticlopidine (HA-MRSA [4]; in the presence of cefuroxime) was 0.063, the “FIC index” value (HA-MRSA [4]; ticlopidine + cefuroxime) was “≦0.188” and the MIC (HA-MRSA [4]; [5]) was > 256 µg/mL.
